Measured values published in patent US12077503B2, “Substituted cyclic amides and their use as herbicides” (FMC CORPORATION, priority 2015, dated 2024).

What was measured:
Type in all cases: in vivo
Kochia (Kochia scoparia) [1] = experiment: Test A preemergence; settings: Bassia scoparia, pre-emergence, 240 h, Preemergence
In short: (§1)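 Compounds were formulated in a non-phytotoxic solvent mixture with surfactant and applied as a preemergence directed soil spray after seeding, or sprayed postemergence over plants 2 to 10 cm tall at the one- to two-leaf stage. Evaluation after about 10 d compared treated with untreated controls, using a scale from 0 (no effect) to 100 (complete control).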

[2] = tested on: barnyardgrass (Echinochloa crus-galli); experiment: Test A preemergence; settings: Echinochloa crus-galli, pre-emergence, 240 h, Preemergence
In short: as §1

[3] = tested on: giant foxtail (Setaria faberii); experiment: Test A preemergence; settings: Setaria faberi, pre-emergence, 240 h, Preemergence
In short: as §1

[4] = tested on: pigweed (Amaranthus retroflexus); experiment: Test A preemergence; settings: Amaranthus retroflexus, pre-emergence, 240 h, Preemergence
[5] = tested on: ragweed (common ragweed, Ambrosia elatior); experiment: Test A preemergence; settings: Ambrosia artemisiifolia, pre-emergence, 240 h, Preemergence
In short: as §1

[6] = tested on: ryegrass, Italian (Italian ryegrass, Lolium multiflorum); experiment: Test A preemergence; settings: Lolium multiflorum, pre-emergence, 240 h, Preemergence
In short: as §1

[7] = tested on: Galium (catchweed bedstraw, Galium aparine); experiment: Test A postemergence; settings: Galium, post-emergence, 240 h, Postemergence, read-out: Galium plant response rating (0 to 100 scale)
In short: as §1

Kochia (Kochia scoparia) [8] = experiment: Test A postemergence; settings: Bassia scoparia, post-emergence, 240 h, Postemergence, read-out: Kochia plant response rating (0 to 100 scale)
In short: as §1

[9] = tested on: barnyardgrass (Echinochloa crus-galli); experiment: Test A postemergence; settings: Echinochloa crus-galli, post-emergence, 240 h, Postemergence
In short: as §1

[10] = tested on: blackgrass (Alopecurus myosuroides); experiment: Test A postemergence; settings: Alopecurus myosuroides, post-emergence, 240 h, Postemergence, read-out: Blackgrass plant response rating (0 to 100 scale)
In short: as §1

corn (Zea mays) = experiment: Test A postemergence; settings: Zea mays, post-emergence, 240 h, Postemergence, read-out: Corn plant response rating (0 to 100 scale)
In short: as §1

[11] = tested on: giant foxtail (Setaria faberii); experiment: Test A postemergence; settings: Setaria faberi, post-emergence, 240 h, Postemergence, read-out: Foxtail, Giant plant response rating (0 to 100 scale)
In short: as §1

[12] = tested on: pigweed (Amaranthus retroflexus); experiment: Test A postemergence; settings: Amaranthus retroflexus, post-emergence, 240 h, Postemergence, read-out: Pigweed plant response rating (0 to 100 scale)
In short: as §1

[13] = tested on: ragweed (common ragweed, Ambrosia elatior); experiment: Test A postemergence; settings: Ambrosia artemisiifolia, post-emergence, 240 h, Postemergence, read-out: Ragweed plant response rating (0 to 100 scale)
In short: as §1

[14] = tested on: ryegrass, Italian (Italian ryegrass, Lolium multiflorum); experiment: Test A postemergence; settings: Lolium multiflorum, post-emergence, 240 h, Postemergence, read-out: Ryegrass, Italian plant response rating (0 to 100 scale)
In short: as §1

[15] = tested on: wheat (Triticum aestivum); experiment: Test A postemergence; settings: Triticum aestivum, post-emergence, 240 h, Postemergence, read-out: Wheat plant response rating (0 to 100 scale)
In short: as §1

[16] = tested on: barnyardgrass (Echinochloa crus-galli); experiment: Test B flooded paddy test; settings: Echinochloa crus-galli, 360 h, Flood, 250 g ai/ha; visually evaluated after 13 to 15 d; read-out: Plant response rating, Barnyardgrass (0 to 100 scale where 0 is no effect and 100 is complete control)
In short: (§2)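 2-leaf plants; pots flooded 3 cm over soil; cpd added to paddy water; depth held; greenhouse 13–15 d; visual rating vs controls, 0 = no effect, 100 = complete control.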

[17] = tested on: ducksalad (Heteranthera limosa); experiment: Test B flooded paddy test; settings: Heteranthera limosa, 360 h, Flood, 250 g ai/ha; visually evaluated after 13 to 15 d; read-out: Plant response rating, Ducksalad (0 to 100 scale where 0 is no effect and 100 is complete control)
In short: as §2

rice (Oryra sativa) = experiment: Test B flooded paddy test; settings: Oryza sativa, 360 h, Flood, 250 g ai/ha; visually evaluated after 13 to 15 d; read-out: Plant response rating, Rice (0 to 100 scale where 0 is no effect and 100 is complete control)
In short: as §2

[18] = tested on: sedge, umbrella (small-flower umbrella sedge, Cyperus difformis); experiment: Test B flooded paddy test; settings: Cyperus difformis, 360 h, Flood, 250 g ai/ha; visually evaluated after 13 to 15 d; read-out: Plant response rating, Sedge, Umbrella (0 to 100 scale where 0 is no effect and 100 is complete control)
In short: as §2

[19] = 125 g ai/ha, visual rating about 10 d after treatment
[20] = 31 g ai/ha, 0 is no effect, 100 is complete control

Cc1ccc([C@H]2CN(C)C(=O)[C@@H]2C(=O)Nc2cccc(F)n2)cc1 [Compound 1375]
pest or weed control at 31 g/ha (Kochia (Kochia scoparia) [1]; 31 g ai/ha, 0 to 100 scale where 0 is no effect and 100 is complete control, read-out: Kochia plant response rating): 50%
pest or weed control at 125 g/ha (Kochia (Kochia scoparia) [1]; 125 g ai/ha, 0 to 100 scale (0 no effect, 100 complete control), read-out: Plant response rating, Kochia): 70%
pest or weed control at 31 g/ha ([2]; 31 g ai/ha, 0 to 100 scale where 0 is no effect and 100 is complete control, read-out: Barnyardgrass plant response rating): 90%
pest or weed control at 125 g/ha ([2]; 125 g ai/ha, 0 to 100 scale (0 no effect, 100 complete control), read-out: Plant response rating, Barnyardgrass): 100%
pest or weed control at 31 g/ha ([3]; 31 g ai/ha, 0 to 100 scale where 0 is no effect and 100 is complete control, read-out: Foxtail, Giant plant response rating): 90%
pest or weed control at 125 g/ha ([3]; 125 g ai/ha, 0 to 100 scale (0 no effect, 100 complete control), read-out: Plant response rating, Foxtail, Giant): 100%
pest or weed control at 31 g/ha ([4]; 31 g ai/ha, 0 to 100 scale where 0 is no effect and 100 is complete control, read-out: Pigweed plant response rating): 0%
pest or weed control at 125 g/ha ([4]; 125 g ai/ha, 0 to 100 scale (0 no effect, 100 complete control), read-out: Plant response rating, Pigweed): 0%
pest or weed control at 31 g/ha ([5]; 31 g ai/ha, 0 to 100 scale where 0 is no effect and 100 is complete control, read-out: Ragweed plant response rating): 40%
pest or weed control at 125 g/ha ([5]; 125 g ai/ha, 0 to 100 scale (0 no effect, 100 complete control), read-out: Plant response rating, Ragweed): 70%
pest or weed control at 31 g/ha ([6]; 31 g ai/ha, 0 to 100 scale where 0 is no effect and 100 is complete control, read-out: Ryegrass, Italian plant response rating): 0%
pest or weed control at 125 g/ha ([6]; 125 g ai/ha, 0 to 100 scale (0 no effect, 100 complete control), read-out: Plant response rating, Ryegrass, Italian): 70%
pest or weed control at 125 g/ha [7, 19]: 50%
pest or weed control at 31 g/ha [7, 20]: 20%
pest or weed control at 125 g/ha (Kochia (Kochia scoparia) [8]; [19]): 50%
pest or weed control at 31 g/ha (Kochia (Kochia scoparia) [8]; [20]): 30%
pest or weed control at 125 g/ha ([9]; 125 g ai/ha, visual rating about 10 d after treatment, read-out: Barnyardgrass plant response rating (0 to 100 scale, 0 no effect, 100 complete control)): 100%
pest or weed control at 31 g/ha ([9]; 31 g ai/ha, 0 is no effect, 100 is complete control, read-out: Barnyardgrass plant response rating (0 to 100 scale)): 70%
pest or weed control at 125 g/ha [10, 19]: 40%
pest or weed control at 31 g/ha [10, 20]: 0%
plant injury at 125 g/ha (corn (Zea mays); [19]): 30%
plant injury at 31 g/ha (corn (Zea mays); [20]): 0%
pest or weed control at 125 g/ha [11, 19]: 90%
pest or weed control at 31 g/ha [11, 20]: 70%
pest or weed control at 125 g/ha [12, 19]: 0%
pest or weed control at 31 g/ha [12, 20]: 0%
pest or weed control at 125 g/ha [13, 19]: 20%
pest or weed control at 31 g/ha [13, 20]: 0%
pest or weed control at 125 g/ha [14, 19]: 20%
pest or weed control at 31 g/ha [14, 20]: 0%
plant injury at 125 g/ha [15, 19]: 30%
plant injury at 31 g/ha [15, 20]: 0%
pest or weed control at 250 g/ha [16]: 70%
pest or weed control at 250 g/ha [17]: 95%
pest or weed control at 250 g/ha (rice (Oryra sativa)): 0%
pest or weed control at 250 g/ha [18]: 0%
